Non-standard residues stand in square brackets, D forms with d. Residues, ends and D or L forms follow the SMILES beside them. *: point of attachment. pS = N[C@@H](COP(=O)(O)O)C(=O)O; Meb = Cc1ccc(C*)cc1; Acm = CC(=O)NC*; tBu = CC(C)(C)*; Cam = NC(=O)C*

The target in one assay is T1, interactions between Talin 1 (TLN1) and integrin subunit beta (ITGB) (Homo sapiens, UniProt Q9Y490).
T1 construct: LgBit or SmBit (N-terminal of the HaloTag); made in house
Description: Flip-flop detection mechanism on DNA origami (LgBit/SmBit luminescence), inhibitor screening. The assay is classed as biochemical. The settings on record: inhibition of binding between TLN1 and ITBG. An excerpt: Two types of systems, i.e., flip-flop detection mechanism and switch detection mechanism, were constructed by using HaloTag, LgBit, SmBit, TLN1, and ITGB. Each of TLN1 (Uniprot ID: Q9Y490) and ITGB1 (Uniprot ID: P05556) was cloned from the registered genetic information. HaloTAg has three chemically modifiable locations at a ligand recognition site, C-terminus, and N-terminus. In this Example, a single-stranded DNA for attaching to DNA origami was connected to a ligand recognition site of HaloTag, a subunit of an interaction complex was connected to the C-terminus, and LgBit or SmBit was connected to the N-terminus.
The outline of the system is disclosed in Figure 23. When TLN1 and ITBG are in a bound state in this system, LgBit and SmBit are at spatially separated positions from each other, with a HaloTag interposed therebetween. In this regard, if an inhibitor is added, complex formation of TLN1 and ITBG is inhibited. As a result, a LgBit-SmBit complex can be formed, and a luminescence reaction progresses.
As a candidate drug for inhibiting the binding between TLN1 and ITBG, peptide inhibitors consisting of 13 amino acids prepared by modifying amino acids in an intracellular region of ITGB3 have been designed (Shen B. et al., A directional switch of integrin signaling and a new antithrombotic strategy. Nature 503, 131-135 (2013)). IC50 values for the peptides shown in the following table were calculated by using the flip-flop detection mechanism described in Example 11 for optimizing the sequence. In this manner, the effect of a large number of compounds on the interaction with a target protein can be readily analyzed in the system of the present disclosed.
In the case of `CSCC[C@H](NC(=O)[C@H](Cc1c[nH]c2ccccc12)NC(=O)[C@H](CCCCN)NC(=O)[C@H](CS)NC(=O)[C@H](CC(N)=O)NC(=O)[C@H](CCSC)NC(=O)[C@H](CCCCN)NC(=O)[C@H](CCC(=O)O)NC(=O)[C@H](CCCCN)NC(=O)[C@H](CCC(=O)O)NC(=O)[C@@H](N)Cc1ccccc1)C(=O)O` [FIYM24] (H-FEKEKMNCKWM-OH), the Inhibitory activity entry is given as “no inhibition”.
On the same count and under the same terms, with `CSCC[C@H](NC(=O)[C@H](CCCNC(=N)N)NC(=O)[C@H](CCC(=O)O)NC(=O)[C@@H](N)Cc1ccccc1)C(=O)N[C@@H](CC(N)=O)C(=O)N[C@@H](CS)C(=O)N[C@@H](CCCCN)C(=O)N[C@@H](Cc1c[nH]c2ccccc12)C(=O)N[C@@H](CCSC)C(=O)N[C@H](C(=O)O)[C@@H](C)O` [FIYM25] (H-FERMNCKWMT-OH) the entry was “no inhibition”; with `CSCC[C@H](NC(=O)[C@H](CCCNC(=N)N)NC(=O)[C@H](CCC(=O)O)NC(=O)[C@H](CCCCN)NC(=O)[C@H](CCC(=O)O)NC(=O)[C@H](Cc1ccccc1)NC(=O)[C@@H](N)CCCCN)C(=O)N[C@@H](CC(N)=O)C(=O)N[C@@H](CS)C(=O)N[C@@H](CCCCN)C(=O)N[C@@H](Cc1c[nH]c2ccccc12)C(=O)N[C@@H](CCSC)C(=O)N[C@H](C(=O)O)[C@@H](C)O` [FIYM28] (H-KFEKERMNCKWMT-OH), “no inhibition”; with `CSCC[C@H](NC(=O)[C@H](CCCCN)NC(=O)[C@H](CCC(=O)O)NC(=O)[C@H](CCCCN)NC(=O)[C@H](CCC(=O)O)NC(=O)[C@H](Cc1ccccc1)NC(=O)[C@@H](N)CCCCN)C(=O)N[C@@H](CCSC)C(=O)N[C@@H](CS)C(=O)N[C@@H](CCCCN)C(=O)N[C@@H](Cc1c[nH]c2ccccc12)C(=O)N[C@@H](CCSC)C(=O)N[C@H](C(=O)O)[C@@H](C)O` [FIYM29] (H-KFEKEKMMCKWMT-OH), “no inhibition”.
In the case of `CSCC[C@H](NC(=O)[C@H](CCCNC(=N)N)NC(=O)[C@H](CCC(=O)O)NC(=O)[C@H](CCCCN)NC(=O)[C@H](CCC(=O)O)NC(=O)[C@H](Cc1ccccc1)NC(=O)[C@@H](N)CCCNC(=N)N)C(=O)N[C@@H](CC(N)=O)C(=O)N[C@@H](CS)C(=O)N[C@@H](CCCCN)C(=O)N[C@@H](Cc1c[nH]c2ccccc12)C(=O)N[C@@H](CCSC)C(=O)N[C@H](C(=O)O)[C@@H](C)O` [FIYM30] (H-RFEKERMNCKWMT-OH), the Inhibitory activity entry is “no inhibition”.
As to `CSCC[C@H](NC(=O)[C@H](CCCCN)NC(=O)[C@H](CCC(=O)O)NC(=O)[C@H](CCCNC(=N)N)NC(=O)[C@H](CCC(=O)O)NC(=O)[C@H](Cc1ccccc1)NC(=O)[C@@H](N)CCCCN)C(=O)N[C@@H](CCSC)C(=O)N[C@@H](CS)C(=O)N[C@@H](CCCCN)C(=O)N[C@@H](Cc1c[nH]c2ccccc12)C(=O)N[C@@H](CCSC)C(=O)N[C@H](C(=O)O)[C@@H](C)O` [FIYM32] (H-KFEREKMMCKWMT-OH), the Inhibitory activity result is recorded as “no inhibition”.
Same read-out and setting: as for `CSCC[C@H](NC(=O)[C@H](CCCNC(=N)N)NC(=O)[C@H](CCC(=O)O)NC(=O)[C@H](CCCCN)NC(=O)[C@H](CCC(=O)O)NC(=O)[C@H](Cc1ccccc1)NC(=O)[C@@H](N)CCCCN)C(=O)N[C@@H](CCSC)C(=O)N[C@@H](CS)C(=O)N[C@@H](CCCCN)C(=O)N[C@@H](Cc1c[nH]c2ccccc12)C(=O)N[C@@H](CCSC)C(=O)N[C@H](C(=O)O)[C@@H](C)O` [FIYM33] (H-KFEKERMMCKWMT-OH), the entry is “no inhibition”; as for `CSCC[C@H](NC(=O)[C@H](CCCCN)NC(=O)[C@H](CCC(=O)O)NC(=O)[C@H](CCCCN)NC(=O)[C@H](CCC(=O)O)NC(=O)[C@H](Cc1ccccc1)NC(=O)[C@@H](N)CCCCN)C(=O)N[C@@H](CC(N)=O)C(=O)N[C@H](C(=O)N[C@@H](CCCCN)C(=O)N[C@@H](Cc1c[nH]c2ccccc12)C(=O)N[C@@H](CCSC)C(=O)N[C@H](C(=O)O)[C@@H](C)O)[C@@H](C)O` [FIYM34] (H-KFEKEKMNTKWMT-OH), “no inhibition”; as for `CSCC[C@H](NC(=O)[C@H](CCCCN)NC(=O)[C@H](CCC(=O)O)NC(=O)[C@H](CCCCN)NC(=O)[C@H](CCC(=O)O)NC(=O)[C@H](Cc1ccccc1)NC(=O)[C@@H](N)CCCCN)C(=O)N[C@@H](CC(N)=O)C(=O)N[C@@H](CCSC)C(=O)N[C@@H](CCCCN)C(=O)N[C@@H](Cc1c[nH]c2ccccc12)C(=O)N[C@@H](CCSC)C(=O)N[C@H](C(=O)O)[C@@H](C)O` [FIYM35] (H-KFEKEKMNMKWMT-OH), “no inhibition”.
`CSCC[C@H](NC(=O)[C@H](CCCCN)NC(=O)[C@H](CCC(=O)O)NC(=O)[C@H](CCCCN)NC(=O)[C@H](CCC(=O)O)NC(=O)[C@H](Cc1ccccc1)NC(=O)[C@@H](N)CCCCN)C(=O)N[C@@H](CC(N)=O)C(=O)N[C@@H](COP(=O)(O)O)C(=O)N[C@@H](CCCCN)C(=O)N[C@@H](Cc1c[nH]c2ccccc12)C(=O)N[C@@H](CCSC)C(=O)N[C@H](C(=O)O)[C@@H](C)O` [FIYM36] (H-KFEKEKMN[pS]KWMT-OH): the Inhibitory activity entry is reported as “no inhibition”.
For the compound `CSCC[C@H](NC(=O)[C@H](CCCCN)NC(=O)[C@H](CCC(=O)O)NC(=O)[C@H](CCCCN)NC(=O)[C@H](CCC(=O)O)NC(=O)[C@H](Cc1ccccc1)NC(=O)[C@@H](N)CCCCN)C(=O)N[C@@H](CC(N)=O)C(=O)N[C@@H](CSCNC(C)=O)C(=O)N[C@@H](CCCCN)C(=O)N[C@@H](Cc1c[nH]c2ccccc12)C(=O)N[C@@H](CCSC)C(=O)N[C@H](C(=O)O)[C@@H](C)O` [FIYM38] (H-KFEKEKMNC(Acm)KWMT-OH), the Inhibitory activity entry is “no inhibition”.
In the case of `CSCC[C@H](NC(=O)[C@H](CCCCN)NC(=O)[C@H](CCC(=O)O)NC(=O)[C@H](CCCCN)NC(=O)[C@H](CCC(=O)O)NC(=O)[C@H](Cc1ccccc1)NC(=O)[C@@H](N)CCCCN)C(=O)N[C@@H](CC(N)=O)C(=O)N[C@@H](CSCc1ccc(C)cc1)C(=O)N[C@@H](CCCCN)C(=O)N[C@@H](Cc1c[nH]c2ccccc12)C(=O)N[C@@H](CCSC)C(=O)N[C@H](C(=O)O)[C@@H](C)O` [FIYM41] (H-KFEKEKMNC(Meb)KWMT-OH), the Inhibitory activity entry was “no inhibition”.

Still in this assay, the particulars now being: inhibition of binding between TLN1 and ITBG, read-out: Inhibitory activity.
In the case of `CSCC[C@H](NC(=O)[C@H](Cc1c[nH]c2ccccc12)NC(=O)[C@H](CCCCN)NC(=O)[C@H](CS)NC(=O)[C@H](CC(N)=O)NC(=O)[C@H](CCSC)NC(=O)[C@H](CCCCN)NC(=O)[C@H](CCC(=O)O)NC(=O)[C@H](CCCCN)NC(=O)[C@H](CCC(=O)O)NC(=O)[C@H](Cc1ccccc1)NC(=O)[C@@H](N)CCCCN)C(=O)O` [FIYM22] (H-KFEKEKMNCKWM-OH), the IC50 came to 472 µM.
Regarding `CSCC[C@H](NC(=O)[C@H](CCCCN)NC(=O)[C@H](CCC(=O)O)NC(=O)[C@H](CCCCN)NC(=O)[C@H](CCC(=O)O)NC(=O)[C@@H](N)Cc1ccccc1)C(=O)N[C@@H](CC(N)=O)C(=O)N[C@@H](CS)C(=O)N[C@@H](CCCCN)C(=O)N[C@@H](Cc1c[nH]c2ccccc12)C(=O)N[C@@H](CCSC)C(=O)N[C@H](C(=O)O)[C@@H](C)O` [FIYM23] (H-FEKEKMNCKWMT-OH), the IC50 was determined as 444 µM.
On the same count and under the same terms, with `CSCC[C@H](NC(=O)[C@H](CCCCN)NC(=O)[C@H](CCC(=O)O)NC(=O)[C@H](CCCCN)NC(=O)[C@H](CCC(=O)O)NC(=O)[C@H](Cc1ccccc1)NC(=O)[C@@H](N)CCCNC(=N)N)C(=O)N[C@@H](CC(N)=O)C(=O)N[C@@H](CS)C(=O)N[C@@H](CCCCN)C(=O)N[C@@H](Cc1c[nH]c2ccccc12)C(=O)N[C@@H](CCSC)C(=O)N[C@H](C(=O)O)[C@@H](C)O` [FIYM26] (H-RFEKEKMNCKWMT-OH) the figure was 76.9 µM; with `CSCC[C@H](NC(=O)[C@H](CCCCN)NC(=O)[C@H](CCC(=O)O)NC(=O)[C@H](CCCNC(=N)N)NC(=O)[C@H](CCC(=O)O)NC(=O)[C@H](Cc1ccccc1)NC(=O)[C@@H](N)CCCCN)C(=O)N[C@@H](CC(N)=O)C(=O)N[C@@H](CS)C(=O)N[C@@H](CCCCN)C(=O)N[C@@H](Cc1c[nH]c2ccccc12)C(=O)N[C@@H](CCSC)C(=O)N[C@H](C(=O)O)[C@@H](C)O` [FIYM27] (H-KFEREKMNCKWMT-OH), 94.7 µM.
Same read-out and setting: with `CSCC[C@H](NC(=O)[C@H](CCCCN)NC(=O)[C@H](CCC(=O)O)NC(=O)[C@H](CCCCN)NC(=O)[C@H](CCC(=O)O)NC(=O)[C@H](Cc1ccccc1)NC(=O)[C@@H](N)CCCCN)C(=O)N[C@@H](CC(N)=O)C(=O)N[C@@H](CSCC(N)=O)C(=O)N[C@@H](CCCCN)C(=O)N[C@@H](Cc1c[nH]c2ccccc12)C(=O)N[C@@H](CCSC)C(=O)N[C@H](C(=O)O)[C@@H](C)O` [FIYM39] (H-KFEKEKMNC(Cam)KWMT-OH) the figure was 131 µM; with `CSCC[C@H](NC(=O)[C@H](CCCCN)NC(=O)[C@H](CCC(=O)O)NC(=O)[C@H](CCCCN)NC(=O)[C@H](CCC(=O)O)NC(=O)[C@H](Cc1ccccc1)NC(=O)[C@@H](N)CCCCN)C(=O)N[C@@H](CC(N)=O)C(=O)N[C@@H](CSC(C)(C)C)C(=O)N[C@@H](CCCCN)C(=O)N[C@@H](Cc1c[nH]c2ccccc12)C(=O)N[C@@H](CCSC)C(=O)N[C@H](C(=O)O)[C@@H](C)O` [FIYM40] (H-KFEKEKMNC(tBu)KWMT-OH), 110 µM.

The values are drawn from patent EP4793641A1, “NOVEL METHOD FOR ANALYZING BIOMOLECULAR INTERACTIONS” (Kyoto University, priority 2023, dated 2025).
